# Measured values reported in US8138205B2, “Heteroarylalkoxy-substituted quinolone inhibitors of PDE4” (Kalypsys, Inc., priority 2006, dated 2012).
# What was measured:
# Rabbits = assay: Lacrimal Gland Inflammation-Induced Dry Eye in Rabbits (corneal staining, tear breakup time); assay type: in vivo; details: topical ocular BID, rabbit ConA dry eye
# From the text: A more detailed description of the assay used herein may be found in Naglehout, T J et al. 2005, “Preservation of Tear Film Integrity and Inhibition of Corneal Injury by Dexamethasone in a Rabbit Model of Lacrimal Gland Inflammation-Induced Dry Eye,” J. Ocular Pharm. Ther., 21:2. 139-148, the disclosure of which is hereby incorporated by reference as if written herein in its entirety.
# Rabbits (n=4/group) were randomized into treatment groups and dosed topically BID with maxidex vehicle or test drug beginning one day prior to initiation of dry eye. Each rabbit received bilateral lacrimal gland injections of saline or ConA (300 μg/30 μl) and topical ocular dosing was continued BID throughout the study.
# Desiccation was initiated 1-2 hours following lacrimal gland injection by placing conscious rabbits in the environmental chamber (10-15% humidity/72° F.). Following 72 consecutive hours of exposure to this dry environment, the animals were anesthetized and sutures were placed in each upper and lower eyelid and lifted to form a corneal/conjunctival cup. Methylene blue dye (1 mL, 1% in dH2O) was added to the cup for three minutes and the excess removed by washing with 200 mL BSS®. The contralateral eye was then stained using the same procedure. Rabbits were euthanized immediately following the staining procedure and the eyes were excised. The corneas were isolated with a trephine and the 9.5-mm punch of the cornea was placed in 2 mL acetone/saturated sodium sulfate (7:3, vol./vol.). Absorbance of the extracted dye was determined at 660 nm.
# TBUT was quantified in a separate group of treated animals. TBUT was determined by instilling 5 μL sodium fluorescein into the cul de sac and manually blinking the lids to distribute the fluorescein within the tear film. Under slit lamp observation, the eye was held open and the time whereby one or more black spots or streaks appeared in the precorneal tear film was recorded. The rabbits were euthanized 3 days following ConA injection.
# Stability Protocol = assay type: physicochemical; details: pH 7.4 sodium phosphate buffer, preliminary shelf life (T90) estimated from stressed samples
# Procedure: About 3 mg of a compound was dissolved in 3 mL of acetonitrile/water mixture (50/50). 100 μL of the stock solution was added to 20 mL each of 0.025 M pH 5.0 sodium acetate buffer (A5.0), 0.025 M pH 5.0 citrate buffer (C5.0) and 0.025 M pH 7.4 sodium phosphate buffer (P7.4). A two mL aliquot of each solution was kept in a glass vial equipped a cap lined with Teflon. Two vials containing the solution were stored at 4° C. or −20° C. as control. Other aliquots were stressed at RT, 45° C. or 75° C. for specified time check points, e.g. 1 day, 1 w, 2 w, 4 w, 8 w,12 w. The stressed samples in duplicate were assayed against the control using HPLC. The results were reported in % degradation. Preliminary shelf life (T90) was estimated assuming the rate of chemical degradation is double when the temperature is up 10° C.
# Solubility Protocol = assay type: physicochemical; details: aqueous buffer, thermodynamic from solid; pH 7.4, 0.1 M sodium phosphate buffer
# Procedure: About 5 mg of a compound was mixed with 500 μL of pH 7.4, 0.1 M sodium phosphate buffer. The mixture was adjusted to the original pH of 7.4 and then mixed overnight or longer via rotary mixing. The sample was checked for pH and then filtered through a 0.45 μm filter. If the pH drifted away, the sample was adjusted to its original pH and mixed for at least 15 minutes before filtration. The filtrate was analyzed using HPLC.
"Stability, pH 7.4 (Stability Protocol)",solubility (Solubility Protocol) [µg/mL],Compound,Activity at Percent Concentration Tested (Rabbits; 1 percent),Activity at Percent Concentration Tested (Rabbits; 1 × 10^−1 percent),Activity at Percent Concentration Tested (Rabbits; 1 × 10^−2 percent),Activity at Percent Concentration Tested (Rabbits; 1 × 10^−4 percent),Activity at Percent Concentration Tested (Rabbits; 1 × 10^−6 percent)
+ (+ indicates ≧1 Year),≥ 1000,"COc1ccc2c(Nc3c(Cl)cncc3Cl)cc(=O)[nH]c2c1OC1CCCC1 [Example 1, 8-(Cyclopentyloxy)-4-(3,5-dichloropyridin-4-ylamino)-7-methoxyquinolin-2(1H)-one]",Inactive,Inactive,Inactive,,
+ (+ indicates ≧1 Year),≥ 1000,"COc1ccc2c(Nc3c(C)cncc3C)cc(=O)[nH]c2c1OC1CCCC1 [Example 5, 8-(Cyclopentyloxy)-4-(3,5-dimethylpyridin-4-ylamino)-7-methoxyquinolin-2(1H)-one]",,,Inactive,Inactive,Inactive
+ (+ indicates ≧1 Year),,"COc1ccc2c(Nc3c(C)cncc3C)cc(=O)[nH]c2c1OCC1CC1 [Example 8, 8-(Cyclopropylmethoxy)-4-(3,5-dimethylpyridin-4-ylamino)-7-methoxyquinolin-2(1H)-one]",,,Inactive,Inactive,Inactive
